Calls of active or inactive are those of the source. No cut-off for these calls is given here.
How the values were obtained:
[1] = biological target: T1, Mitogen-activated protein kinase 1 (Toxoplasma gondii, UniProt Q5SC61); experiment: Inhibition of Toxoplasma gondii recombinant MAPK1 expressed in Escherichia coli; assay type: cell-free
T1 sequence (Q5SC61 whole entry): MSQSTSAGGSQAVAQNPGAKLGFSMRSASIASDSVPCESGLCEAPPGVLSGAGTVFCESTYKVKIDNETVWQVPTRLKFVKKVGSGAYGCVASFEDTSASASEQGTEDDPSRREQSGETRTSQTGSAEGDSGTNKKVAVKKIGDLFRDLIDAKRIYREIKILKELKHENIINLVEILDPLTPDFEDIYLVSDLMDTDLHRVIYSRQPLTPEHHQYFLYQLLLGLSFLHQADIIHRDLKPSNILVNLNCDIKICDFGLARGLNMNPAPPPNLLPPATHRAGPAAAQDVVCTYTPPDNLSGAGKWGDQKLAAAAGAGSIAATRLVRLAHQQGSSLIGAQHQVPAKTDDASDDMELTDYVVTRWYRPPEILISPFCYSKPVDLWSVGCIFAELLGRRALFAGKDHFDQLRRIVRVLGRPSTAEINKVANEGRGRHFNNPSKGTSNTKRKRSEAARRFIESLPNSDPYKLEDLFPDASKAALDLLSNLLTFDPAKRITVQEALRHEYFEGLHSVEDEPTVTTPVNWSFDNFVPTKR

Toxoplasma gondii [2] = experiment: (§1) Antiprotozoal activity against 5 MOI SB-203580-resistant Toxoplasma gondii SBRMe49-2 tachyzoites infected in confluent HFF assessed as inhibition of [3H]uracil incorporation into tachyzoites at 0.25 to 10 uM treated 4 hrs after infection measured after overnight incubation post uracil addition by liquid scintillation counting; assay type: functional, organism-based
Toxoplasma gondii [3] = experiment: Antiprotozoal activity against 1000 Toxoplasma gondii RH tachyzoites infected in CBA/J mouse assessed as prolongation of survival of mous at 3.8 mg/kg, ip administered 24 hrs postinfection for 7 consecutive days; assay type: functional, organism-based; parameters: dose 3.8 mg/kg
Toxoplasma gondii [4] = experiment: Antiprotozoal activity against 1000 Toxoplasma gondii RH tachyzoites infected in CBA/J mouse assessed as prolongation of survival of mous at 7.5 mg/kg, ip administered 24 hrs postinfection for 7 consecutive days; assay type: functional, organism-based; parameters: dose 7.5 mg/kg
Toxoplasma gondii [5] = experiment: Antiprotozoal activity against 1000 Toxoplasma gondii RH tachyzoites infected in CBA/J mouse assessed as prolongation of survival of mous at 15 mg/kg, ip administered 24 hrs postinfection for 7 consecutive days; assay type: functional, organism-based; parameters: dose 15 mg/kg
Toxoplasma gondii [6] = experiment: Antiprotozoal activity against 1000 Toxoplasma gondii RH tachyzoites infected in CBA/J mouse assessed as prolongation of survival of mous at 30 mg/kg, ip administered 24 hrs postinfection for 7 consecutive days; assay type: functional, organism-based; parameters: dose 30 mg/kg
Toxoplasma gondii [7] = experiment: Antiprotozoal activity against 1000 Toxoplasma gondii RH tachyzoites infected in CBA/J mouse assessed as prolongation of survival of mous at 60 mg/kg, ip administered 24 hrs postinfection for 7 consecutive days; assay type: functional, organism-based; parameters: dose 60 mg/kg
Toxoplasma gondii [8] = experiment: Antiprotozoal activity against 100 Toxoplasma gondii RH tachyzoites infected in CBA/J mouse assessed as prolongation of survival of mous at 30 mg/kg, ip twice daily for 7 consecutive days administered 2 hrs postinfection; assay type: functional, organism-based; parameters: dose 30 mg/kg
Toxoplasma gondii [9] = experiment: Antiprotozoal activity against 100 Toxoplasma gondii RH tachyzoites infected in CBA/J mouse survival at 60 mg/kg, ip administered 2 hrs postinfection once daily for 7 consecutive days; assay type: functional; conditions: route intraperitoneal
Toxoplasma gondii [10] = experiment: Antiprotozoal activity against 100 Toxoplasma gondii RH tachyzoites infected in CBA/J mouse assessed as prolongation of survival of mous at 30 mg/kg, ip administered 24 hrs postinfection twice daily for 7 consecutive days; assay type: functional, organism-based; parameters: dose 30 mg/kg
Toxoplasma gondii [11] = experiment: Antiprotozoal activity against 100 Toxoplasma gondii RH tachyzoites infected in CBA/J mouse assessed as prolongation of survival of mous at 60 mg/kg, ip administered 24 hrs postinfection once daily for 7 consecutive days; assay type: functional, organism-based; parameters: dose 60 mg/kg
Toxoplasma gondii [12] = experiment: Antiprotozoal activity against 20 Toxoplasma gondii RH tachyzoites infected in CBA/J mouse assessed as prolongation of survival of mous at 30 mg/kg, ip administered 2 hrs postinfection for 7 consecutive days; assay type: functional; conditions: route intraperitoneal
Toxoplasma gondii [13] = experiment: Antiprotozoal activity against 20 Toxoplasma gondii RH tachyzoites infected in CBA/J mouse assessed as prolongation of survival of mous at 60 mg/kg, ip administered 2 hrs postinfection for 7 consecutive days; assay type: functional; conditions: route intraperitoneal
Toxoplasma gondii [14] = experiment: Antiprotozoal activity against 20 Toxoplasma gondii RH tachyzoites infected in CBA/J mouse assessed as prolongation of survival of mous at 50 mg/kg, po administered 2 hrs postinfection for 7 consecutive days; assay type: functional, organism-based; parameters: dose 50 mg/kg
Toxoplasma gondii [15] = experiment: Antiprotozoal activity against 20 Toxoplasma gondii RH tachyzoites infected in CBA/J mouse assessed as prolongation of survival of mous at 17 mg/kg, po administered 2 hrs postinfection for 7 consecutive days; assay type: functional, organism-based; parameters: dose 17 mg/kg
Mus musculus [16] = experiment: Toxicity in CBA/J mouse assessed as occasional and transient fur ruffling at 60 mg/kg, ip; assay type: organism-based; parameters: dose 60 mg/kg, route intraperitoneal; conditions: in vivo
Mus musculus [17] = experiment: Toxicity in CBA/J mouse at 30 mg/kg, ip; assay type: organism-based; parameters: dose 30 mg/kg, route intraperitoneal; conditions: in vivo
Mus musculus [18] = experiment: Toxicity in CBA/J mouse at 50 mg/kg, po; assay type: organism-based; parameters: dose 50 mg/kg, route oral; conditions: in vivo
Mus musculus [19] = experiment: Toxicity in CBA/J mouse at 17 mg/kg, po; assay type: organism-based; parameters: dose 17 mg/kg, route oral; conditions: in vivo
Encephalitozoon cuniculi [20] = experiment: Antiprotozoal activity against Encephalitozoon cuniculi infected in CD8 knockout […] mouse assessed as prolongation of survival of mous-related absence of ascites fluid and sluggishness at 36 mg/kg, ip administered 2 days after infection for 15 consecutive days; assay type: functional, organism-based; parameters: dose 36 mg/kg
Encephalitozoon cuniculi [21] = experiment: Antiprotozoal activity against Encephalitozoon cuniculi infected in CD8 knockout […] mouse mouse survival at 6 mg/kg, ip administered 2 days after infection for 15 consecutive days; assay type: functional, organism-based; parameters: dose 6 mg/kg
Toxoplasma gondii [22] = experiment: Antiprotozoal activity against 2000Toxoplasma gondii RH tachyzoites infected 30 days after initial 100 parasite infection in CBA/J mouse assessed as mouse survival time at 60 mg/kg, ip administered 2 hrs postinfection for 7 consecutive days; conditions: route intraperitoneal
Toxoplasma gondii [23] = experiment: Antiprotozoal activity against 2000Toxoplasma gondii RH tachyzoites infected 30 days after initial 100 parasite infection in CBA/J mouse assessed as mouse survival time at 5 mg/kg, ip administered 2 hrs postinfection for 7 consecutive days; conditions: route intraperitoneal
Toxoplasma gondii [24] = experiment: Antiprotozoal activity against 2000Toxoplasma gondii RH tachyzoites infected 30 days after initial 20 parasite infection in CBA/J mouse assessed as mouse survival time at 30 mg/kg, ip administered 2 hrs postinfection for 7 consecutive days; conditions: route intraperitoneal
Toxoplasma gondii [25] = experiment: Antiprotozoal activity against 2000Toxoplasma gondii RH tachyzoites infected 30 days after initial 20 parasite infection in CBA/J mouse assessed as mouse survival time at 60 mg/kg, ip administered 2 hrs postinfection for 7 consecutive days; conditions: route intraperitoneal
Toxoplasma gondii [26] = experiment: Antiprotozoal activity against 100 Toxoplasma gondii RH tachyzoites infected in CBA/J mouse survival at 60 mg/kg, ip administered 2 hrs postinfection once daily for 7 consecutive days in presence of pyrimethamine 5 mg/kg, po; assay type: functional
Toxoplasma gondii [27] = experiment: Antiprotozoal activity against 100 Toxoplasma gondii RH tachyzoites infected in CBA/J mouse survival at 60 mg/kg, ip administered 2 hrs postinfection once daily for 7 consecutive days in presence of sulfadiazine 75 mg/liter; assay type: functional; conditions: route intraperitoneal
[28] = biological target: Mitogen-activated protein kinase 14 (Homo sapiens, UniProt Q16539)
Description: Inhibition of human recombinant p38alpha assessed as [gamma33P]ATP utilization by microplate scintillation counting

Toxoplasma gondii [29] = experiment: microbe, parasite or virus in culture; conditions: RH
Description: Antiprotozoal activity against 1 MOI Toxoplasma gondii RH tachyzoites infected in confluent HFF assessed as inhibition of [3H]uracil incorporation into tachyzoites treated 4 hrs after infection measured after overnight incubation post uracil addition by liquid scintillation counting

Toxoplasma gondii [30] = experiment: microbe, parasite or virus in culture; conditions: ME49
Description: Antiprotozoal activity against 5 MOI Toxoplasma gondii Me49 tachyzoites infected in confluent HFF assessed as inhibition of [3H]uracil incorporation into tachyzoites treated 4 hrs after infection measured after overnight incubation post uracil addition by liquid scintillation counting

Toxoplasma gondii [31] = experiment: as §1, with “wild type” for “SB-203580-resistant”, “Me49” for “SBRMe49-2”; assay type: functional, organism-based

Chain of Mitogen-activated protein kinase 14 (Q16539 whole entry): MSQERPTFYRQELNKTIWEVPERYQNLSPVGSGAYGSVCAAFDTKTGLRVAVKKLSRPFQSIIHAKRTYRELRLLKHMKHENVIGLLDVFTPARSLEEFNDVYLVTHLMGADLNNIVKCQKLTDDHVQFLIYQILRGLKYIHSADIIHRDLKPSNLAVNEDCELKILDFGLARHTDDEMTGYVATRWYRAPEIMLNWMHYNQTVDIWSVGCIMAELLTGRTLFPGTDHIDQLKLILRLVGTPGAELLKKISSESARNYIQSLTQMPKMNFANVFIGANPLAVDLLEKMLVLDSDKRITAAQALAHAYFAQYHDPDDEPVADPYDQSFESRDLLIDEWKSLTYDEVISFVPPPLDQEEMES

Compound: OCCC#Cc1nc(-c2ccc(F)cc2)c(-c2ccncc2)n1CCCc1ccccc1 [RWJ-67657]
- IC50 [1]: 200 nM
- Activity (Toxoplasma gondii [2]): inactive
- Activity (Toxoplasma gondii [3]): inactive
- Activity (Toxoplasma gondii [4]): inactive
- Activity (Toxoplasma gondii [5]): inactive
- Activity (Toxoplasma gondii [6]): inactive
- Activity (Toxoplasma gondii [7]): Active
- Activity (Toxoplasma gondii [8]): inactive
- Activity (Toxoplasma gondii [9]): 40%
- Activity (Toxoplasma gondii [10]): inactive
- Activity (Toxoplasma gondii [11]): inactive
- Activity (Toxoplasma gondii [12]): 100%
- Activity (Toxoplasma gondii [13]): 100%
- Activity (Toxoplasma gondii [14]): inactive
- Activity (Toxoplasma gondii [15]): inactive
- Activity (Mus musculus [16]): Toxic
- Activity (Mus musculus [17]): Non-toxic
- Activity (Mus musculus [18]): Non-toxic
- Activity (Mus musculus [19]): Non-toxic
- Activity (Encephalitozoon cuniculi [20]): Active
- Activity (Encephalitozoon cuniculi [21]): inactive
- Activity (Toxoplasma gondii [22]): 30 days
- Activity (Toxoplasma gondii [23]): 30 days
- Activity (Toxoplasma gondii [24]): 30 days
- Activity (Toxoplasma gondii [25]): 30 days
- Activity (Toxoplasma gondii [26]): 80%
- Activity (Toxoplasma gondii [27]): 80%
- IC50 [28]: 1000 nM
- IC50 (Toxoplasma gondii [29]): 5000 nM
- IC50 (Toxoplasma gondii [30]): 800 nM

Compound: C[S+]([O-])c1ccc(-c2nc(-c3ccc(F)cc3)c(-c3ccncc3)[nH]2)cc1 (stereo not drawn) [SB-203580]
- Activity (Toxoplasma gondii [22]): 30 days
- Activity (Toxoplasma gondii [23]): 30 days
- Activity (Toxoplasma gondii [24]): 30 days
- Activity (Toxoplasma gondii [25]): 30 days
- IC50 (Toxoplasma gondii [29]): 8500 nM
- IC50 (Toxoplasma gondii [30]): 2500 nM

Compound: CCc1nc(-c2ccc(OC)cc2)[nH]c1-c1ccncc1 [SB-202474]
- Activity (Toxoplasma gondii [31]): inactive
- Activity (Toxoplasma gondii [2]): inactive
- Activity (Toxoplasma gondii [22]): 30 days
- Activity (Toxoplasma gondii [23]): 30 days
- Activity (Toxoplasma gondii [24]): 30 days
- Activity (Toxoplasma gondii [25]): 30 days

Compound: Oc1ccc(-c2nc(-c3ccc(F)cc3)c(-c3ccncc3)[nH]2)cc1
- Activity (Toxoplasma gondii [2]): inactive
